Each structure is given as a SMILES string. Read-outs that look alike come from different tables or passages of the source.

Data set [1] is described as follows: Spreading test: 5 μl drop on glass plate, area covered after 30 min. The data set is classed as physicochemical. Conditions: 25° C. The text has this:
The following tests have been performed to measure and compare spreading properties of the composition prepared according to Example 1 (N) with Isopropyl Myristate (IPM) and Diethylene Glycol Monoethyl Ether (DGME), known from the state of art as spreading agents. All compositions acted as a carrier of an active insecticidal substance: clove oil (an insect repellent), S-Methoprene (biochemical pesticide interfering with an insect's lifecycle and preventing it from reaching maturity or reproducing) or Etofenprox (neurotoxic insecticide, which disturbs insect nervous systems).
Area (S) of the surface (cm^2) covered by the composition has been measured after 30 min. As an alternative spreading indicator one might also employ Emollient Skin Spreading Factor as defined by Croda (Croda DS-128, Emollient Skin Spreading Factor (1998)).
The following tests have been performed to measure and compare spreading properties of the composition prepared according to Example 1 with ectoparasiticidal compositions known from the state of art. As in the previous tests 5 μl drop of the composition has been applied in the middle of a glass plate at 25° C. Area of the surface (cm^2) covered by the composition has been measured after 30 min.

The test system of the next data set is adult lice. The settings on record: cited from earlier work.

`CCOCCOCCO` [compound 11, Diethylene Glycol Monoethyl Ether]: in data set [1], the “S, area of the surface covered by the composition (active substance carriers)” value is on record as 0.6 cm^2.

As to `CCCCCCCCCCCCCC(=O)OC(C)C` [compound 10, Isopropyl Myristate], the “Mortality of adult lice” value was “less than 20%” in the data set on adult lice (concentration below 70% by weight) and 100% with adult lice (concentration of over 80% by weight). Moreover, in data set [1], the “S, area of the surface covered by the composition (active substance carriers)” value turned out to be 0.6 cm^2.

Source of the values: patent publication US11464224B2, “Liquid spreading composition with ectoparasiticidal activity, a method and use thereof for combating ectoparasites in human and veterinary medicine, as well as in agricultural, horticultural and/or garden environments” (priority 2014, dated 2022).
